Experiment: stability in the presence of water
Assay type: physicochemical

## CCCCCCCCCCCCCCCC[n+]1ccccc1.O=C([O-])Cc1ccccc1Nc1c(Cl)cccc1Cl [cetylpyridinium salt of diclofenac, cetylpyridinium (1-hexadecylpyridinium) salt of diclofenac]
  stability in the presence of water: virtually infinite

From patent publication US7250428B2, “Cetylpyridinium salt of an anti-inflammatory agent and pharmaceutical compositions containing it” (Aziende Chimiche Riunite Angelini Francesco A.C.R.A.F. …, priority 2003, dated 2007)
